US6372728B1, “Formulation for treatment of osteoporosis” (AstraZeneca AB, priority 1997, dated 2002)
Like-named read-outs stand apart in the source and are kept apart here.

What was measured:
[1] = system: bone resorption in the TPTX rats; conditions: TPTX rat; for decrease in blood levels of Ca2+ (FIG. 2): 0.01-5 mgP/kg
Protocol: Female Spraque-Dawley rats from Molegaards Breeding Centre, Skensved, Denmark were used in the experiments. The animals were kept three by three in Macrolon cages, with free access to standard rat food pellets and tap water during the whole experiment. TPTX (Thyroparathyroidectomy) was preformed during anaesthesia with xylazine (Rompun®, 20 mg/ml, 0.25 ml/kg, intraperitoneally (i.p.)) and ketamine (Ketalar®, 50 mg/ml, 2.0 ml/kg, i.p.). After TPTX all rats were supplemented with 4 μg/kg thyroxin subcutaneously three times a week. TPTX adequacy was checked by determination of blood levels of Ca^2+ in a blood samples obtained from the vein of the tail 5-6 days after surgery. TPTX was considered successful if blood Ca^2+ was ≦80% of the concentration found in the rats before surgery.
Bone resorption in the TPTX rats was stimulated by the arotinoid ethyl p-[(E)-2-(5,6,7,8-tetrahydro-5,5,8,8-tetramethyl-2-naphtyl)penyl]-benzoate (RO 13-6298, a gift from Hoffman-La Roche AG, Basel, Switzerland). RO 13-6298 was administered subcutaneously once daily (100 μg/kg in 1 ml/kg solved in polyethylene glycol 300 containing 10% ethanol) for three consecutive days (days 1, 2 and 3), day 1 being five to six days after TPTX.

[2] = taken either concurrently with or 2 hours after breakfast; cited from earlier work

Structure (SMILES): NCCCC(O)(P(=O)(O)O)P(=O)(O)O [alendronate, 4-amino-1-hydroxybutylidene-1,1-biphosphonic acid]
- decrease of blood levels of Ca2+ compared to rats treated with only saline ([1]; 24 hours after the third oral dose, 1 mgP/kg, dissolved in saline (0.9% NaCl), free access to food): no significant decrease
- decrease in blood levels of Ca2+ (FIG. 2) ([1]; saline i.v.): dose-dependent decrease
- decrease in blood levels of Ca2+ (FIG. 2) ([1]; saline p.o.): dose-dependent decrease
- impairment of availability [2]: > 85%
